Experimental data taken from patent US7517884B2 (Kalypsys Inc., priority 1998, dated 2009).

Assays:
Format in all cases: cell-based, murine and human
Conditions in all cases: GAL4-PPAR LBD chimera
PPAR-alpha = biological target: T1, PPAR-alpha (UniProt Q07869); assay: PPAR-alpha transactivation assay (GAL4 chimera, luciferase reporter) in CV-1 cells
T1 sequence (Q07869 1-468): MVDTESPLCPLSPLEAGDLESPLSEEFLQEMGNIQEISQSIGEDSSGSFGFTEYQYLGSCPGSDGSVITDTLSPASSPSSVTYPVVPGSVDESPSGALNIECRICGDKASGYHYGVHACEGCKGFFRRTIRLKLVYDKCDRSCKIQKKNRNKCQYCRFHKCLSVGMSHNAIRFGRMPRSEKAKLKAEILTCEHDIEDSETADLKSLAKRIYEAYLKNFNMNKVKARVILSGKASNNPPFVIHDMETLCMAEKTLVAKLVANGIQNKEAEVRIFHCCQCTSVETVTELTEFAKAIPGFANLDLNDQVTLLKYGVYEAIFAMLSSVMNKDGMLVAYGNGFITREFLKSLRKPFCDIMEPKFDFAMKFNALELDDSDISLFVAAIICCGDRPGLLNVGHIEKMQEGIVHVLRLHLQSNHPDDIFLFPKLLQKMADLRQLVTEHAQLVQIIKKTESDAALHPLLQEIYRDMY
Outline: (§1)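 CV-1 cells transiently transfected with murine or human PPAR-alpha, -gamma or -delta ligand-binding domain fused to GAL4 DNA-binding domain plus a GAL4-site luciferase reporter. After replating in phenol-red-free DME with 5% delipidated calf serum, cells were exposed to compound 20-24 h; luciferase read-out gave EC50.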

PPAR-delta = biological target: T2, PPAR-delta (UniProt Q03181); assay: PPAR-delta transactivation assay (GAL4 chimera, luciferase reporter) in CV-1 cells
T2 sequence (Q03181 1-441): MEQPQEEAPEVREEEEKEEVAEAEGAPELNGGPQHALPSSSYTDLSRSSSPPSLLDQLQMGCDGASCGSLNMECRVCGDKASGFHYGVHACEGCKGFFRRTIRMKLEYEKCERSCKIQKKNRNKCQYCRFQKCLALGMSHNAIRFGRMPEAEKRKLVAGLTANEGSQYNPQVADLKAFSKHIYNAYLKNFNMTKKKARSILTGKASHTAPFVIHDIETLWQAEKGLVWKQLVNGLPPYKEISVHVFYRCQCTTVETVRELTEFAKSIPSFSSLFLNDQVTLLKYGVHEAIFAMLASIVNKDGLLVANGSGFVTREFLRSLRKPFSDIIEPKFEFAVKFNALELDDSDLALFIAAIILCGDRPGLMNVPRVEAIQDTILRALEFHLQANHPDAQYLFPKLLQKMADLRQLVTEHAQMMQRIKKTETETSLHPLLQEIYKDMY
Outline: as §1

PPAR-gamma = biological target: T3, PPAR-gamma (UniProt P37231); assay: PPAR-gamma transactivation assay (GAL4 chimera, luciferase reporter) in CV-1 cells
T3 sequence (P37231 1-505): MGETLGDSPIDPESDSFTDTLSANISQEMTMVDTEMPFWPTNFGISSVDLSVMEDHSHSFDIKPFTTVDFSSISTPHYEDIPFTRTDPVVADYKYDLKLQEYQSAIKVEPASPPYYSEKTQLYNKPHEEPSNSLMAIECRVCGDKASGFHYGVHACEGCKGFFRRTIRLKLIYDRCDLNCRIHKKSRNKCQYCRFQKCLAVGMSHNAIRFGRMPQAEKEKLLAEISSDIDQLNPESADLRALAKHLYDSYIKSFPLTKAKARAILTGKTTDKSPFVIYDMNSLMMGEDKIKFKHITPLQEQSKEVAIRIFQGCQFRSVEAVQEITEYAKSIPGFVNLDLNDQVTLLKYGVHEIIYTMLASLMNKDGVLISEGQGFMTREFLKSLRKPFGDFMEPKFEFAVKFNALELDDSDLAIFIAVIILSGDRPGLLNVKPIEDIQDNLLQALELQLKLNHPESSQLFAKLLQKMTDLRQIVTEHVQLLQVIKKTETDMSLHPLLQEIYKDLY
Outline: as §1

SMILES	EC50 (PPAR-alpha) [µM]	EC50 (PPAR-delta) [µM]	EC50 (PPAR-gamma) [µM]
C[C@H]1CN(c2ccc(OC(F)(F)F)cc2)CCN1S(=O)(=O)c1ccc2c(c1)C(C(=O)O)CC2 (stereo partly drawn) [Example 62, 6-[2-(S)-Methyl-4-(4-trifluoromethoxy-phenyl)-piperazine-1-sulfonyl]-indan-1-carboxylic acid]	< 5	< 5	5 to 100
C[C@H]1CN(c2ccc(C(F)(F)F)c(F)c2)CCN1S(=O)(=O)c1ccc2c(c1)C(C(=O)O)CC2 (stereo partly drawn) [Example 63, 6-[4-(3-Fluoro-4-trifluoromethyl-phenyl)-2-(S)-methyl-piperazine-1-sulfonyl]-indan-1-carboxylic acid]	< 5	< 5	< 5
CCC1CN(S(=O)(=O)c2ccc3c(c2)C(C(=O)O)CC3)CCN1c1ccc(C(F)(F)F)cn1 (stereo not drawn) [Example 64, 6-[3-Ethyl-4-(5-trifluoromethyl-pyrdin-2-yl)-piperazine-1-sulfonyl]-indan-1-carboxylic acid]	< 5	< 5	< 5
C[C@@H]1CN(S(=O)(=O)c2ccc3c(c2)C(C(=O)O)CC3)C[C@H](C)N1c1ccc(C(F)(F)F)cn1 (stereo partly drawn) [Example 65, 6-[cis-3,5-dimethyl-4-(5-trifluoromethyl-pyrdin-2-yl)-piperazine-1-sulfonyl]-indan-1-carboxylic acid]	< 5	< 5	< 5
O=C(O)C1CCc2ccc(S(=O)(=O)N3CC=C(c4ccc(C(F)(F)F)cn4)CC3)cc21 (stereo not drawn) [Example 66, 6-(5-Trifluoromethyl-3,6-dihydro-2H-|2,4|bipyridinyl-1-sulfonyl)-indan-1-carboxylic acid]	< 5	< 5	5 to 100
O=C(O)C1CCc2ccc(S(=O)(=O)N3CCCN(c4ccc(C(F)(F)F)cn4)CC3)cc21 (stereo not drawn) [Example 67, 6-[4-(5-trifluoromethyl-pyridin-2-yl)-[1,4]diazepane-1-sulfonyl]-indan-1-carboxylic acid]	< 5	< 5	< 5
C[C@H]1CN(c2ccc(C(F)(F)F)cn2)C[C@H](C)N1S(=O)(=O)c1ccc2c(c1)C(C(=O)O)CC2 (stereo partly drawn) [Example 68, 6-[trans-2,6-(S,S)-dimethyl-4-(5-trifluoromethyl-pyrdin-2-yl)-piperazine-1-sulfonyl]-indan-1-carboxylic acid]	< 5	< 5	< 5
C[C@H]1CN(S(=O)(=O)c2ccc3c(c2)C(C(=O)O)CC3)C[C@H](C)N1c1ccc(C(F)(F)F)cn1 (stereo partly drawn) [Example 69, 6-[trans-3,5-(S,S)-dimethyl-4-(5-trifluoromethyl-pyrdin-2-yl)-piperazine-1-sulfonyl]-indan-1-carboxylic acid]	< 5	< 5	< 5
C[C@@H]1CN(c2ccc(C(F)(F)F)c(F)c2)C[C@H](C)N1S(=O)(=O)c1ccc2c(c1)C(C(=O)O)CC2 (stereo partly drawn) [Example 70, 6-[cis-2,6-dimethyl-4-(3-fluoro-4-trifluoromethyl-phenyl)-piperazine-1-sulfonyl]-indan-1-carboxylic acid]	< 5	< 5	5 to 100
O=C(O)C1CCc2ccc(S(=O)(=O)N3CCN(c4ccc(OC(F)(F)F)cc4)CC3)cc21 (stereo not drawn) [Example 71, 6-[4-(4-trifluoromethoxy-phenyl)-piperazine-1-sulfonyl]-indan-1-carboxylic acid]	< 5	< 5	< 5
CCC1CN(c2ccc(C(F)(F)F)cn2)CCN1S(=O)(=O)c1ccc2c(c1)C(C(=O)O)CC2 (stereo not drawn) [Example 72, 6-[2-ethyl-4-(5-trifluoromethyl-pyridin-2-yl)-piperazine-1-sulfonyl]-indan-1-carboxylic acid]	< 5	< 5	< 5
CC1(C)CN(S(=O)(=O)c2ccc3c(c2)C(C(=O)O)CC3)CCN1c1ccc(C(F)(F)F)cn1 (stereo not drawn) [Example 73, 6-[3,3-dimethyl-4-(5-trifluoromethyl-pyridin-2-yl)-piperazine-1-sulfonyl]-indan-1-carboxylic acid]	5 to 100	< 5	< 5
O=C(O)C1CCc2ccc(S(=O)(=O)N3CCN(c4ccc(C(F)(F)F)c(Cl)c4)CC3)cc21 (stereo not drawn) [Example 74, 6-[4-(3-chloro-4-trifluoromethyl-phenyl)-piperazine-1-sulfonyl]-indan-1-carboxylic acid]	< 5	< 5	< 5
C[C@@H]1CN(c2ccc(C(F)(F)F)cn2)C[C@H](C)N1S(=O)(=O)c1cccc2c1CC(C(=O)O)C2 (stereo partly drawn) [Example 77, 4-[cis-2,6-dimethyl-4-(5-trifluoromethyl-pyridin-2-yl)-piperazine-1-sulfonyl]-indan-2-carboxylic acid]	> 100	< 5	> 100
O=C(O)C1CCc2ccc(S(=O)(=O)N3C4CCC3CN(c3ccc(C(F)(F)F)cn3)C4)cc21 (stereo not drawn) [Example 78]	5 to 100	< 5	5 to 100
C[C@@H]1CN(c2ccc(OC(F)(F)F)cc2)C[C@H](C)N1S(=O)(=O)c1cccc2c1CC(C(=O)O)C2 (stereo partly drawn) [Example 79, 4-[cis-2,6-dimethyl-4-(4-trifluoromethoxy-phenyl)-piperazine-1-sulfonyl]-indan-2-carboxylic acid]	> 100	< 5	> 100
C[C@@H]1CN(c2ccc(C(F)(F)F)c(F)c2)C[C@H](C)N1S(=O)(=O)c1cccc2c1CC(C(=O)O)C2 (stereo partly drawn) [Example 83, 4-[4-(3-fluoro-4-trifluoromethyl-phenyl)-cis-2,6-dimethyl-piperazine-1-sulfonyl]-indan-2-carboxylic acid]	5 to 100	< 5	5 to 100
C[C@@H]1CN(c2ccc(OC(F)(F)F)cc2)C[C@H](C)N1S(=O)(=O)c1ccc2c(c1)CC(C(=O)O)C2 (stereo partly drawn) [Example 84, 5-[2,6-cis-dimethyl-4-(4-trifluoromethoxy-phenyl)-piperazine-1-sulfonyl]-indan-2-carboxylic acid]	> 100	5 to 100	5 to 100
Cc1cc(N2C[C@@H](C)N(S(=O)(=O)c3ccc4c(c3)C(C(=O)O)CC4)[C@@H](C)C2)ccc1OC(F)F (stereo partly drawn) [Example 85, 6-[4-(4-difluoromethoxy-3-methyl-phenyl)-2,6-dimethyl-piperazine-1-sulfonyl]-indan-1-carboxylic acid]	5 to 100	< 5	5 to 100
C[C@@H]1CN(c2ccc(OC(F)(F)F)cc2)C[C@H](C)N1S(=O)(=O)c1ccc2ccn(CC(=O)O)c2c1 [Example 88, {6-[cis-2,6-Dimethyl-4-(4-trifluoromethoxy-phenyl)-piperazine-1-sulfonyl]-indol-1-yl}-acetic acid]	> 100	< 5	5 to 100
O=C(O)C1Cc2cccc(S(=O)(=O)N3CCN(c4ccc(OC(F)(F)F)cn4)CC3)c2C1 (stereo not drawn) [Example 89, 4-[4-(5-Trifluoromethoxy-pyridin-2-yl)-piperazine-1-sulfonyl]-indan-2-carboxylic acid]	< 5	< 5	< 5
O=C(O)Cn1ccc2ccc(S(=O)(=O)N3CCN(c4ccc(OC(F)(F)F)cc4)CC3)cc21 [Example 90, {6-[4-(4-Trifluoromethoxy-phenyl)-piperazine-1-sulfonyl]-indol-1-yl}-acetic acid]	5 to 100	< 5	5 to 100
O=C(O)CN1CCc2ccc(S(=O)(=O)N3CCN(c4ccc(OC(F)(F)F)cc4)CC3)cc21 [Example 91, {6-[4-(4-trifluoromethoxy-phenyl)-piperazine-1-sulfonyl]-2,3-dihydro-indol-1-yl}-acetic acid]	5 to 100	< 5	< 5
